A short description of the data set: xn = mol fraction of the nth substance listed. The following applies: 101 kPa, Liquid, Taylor dispersion method, x1 = 0.

The structures appear in SMILES notation.

For the molecule `NCCC(=O)O` [3-aminopropanoic acid] + O, the binary diffusion coefficient (298.2 K) is 9.37e-10 m2/s; the binary diffusion coefficient (303.2 K) came to 1.06e-09 m2/s; the binary diffusion coefficient (313.2 K) worked out at 1.35e-09 m2/s; the binary diffusion coefficient (323.2 K) turned out to be 1.64e-09 m2/s; the binary diffusion coefficient (333.2 K) was 1.97e-09 m2/s.
For `NCCCC(=O)O` [4-aminobutanoic acid] + O the same measures were 8.38e-10 m2/s, 9.54e-10 m2/s, 1.2e-09 m2/s, 1.49e-09 m2/s and 1.79e-09 m2/s.
In the case of `NCCCCC(=O)O` [5-aminovaleric acid] + O, the binary diffusion coefficient amounted to 7.76e-10 m2/s (298.2 K); 8.73e-10 m2/s (303.2 K); 1.12e-09 m2/s (313.2 K); 1.39e-09 m2/s (323.2 K); 1.66e-09 m2/s (333.2 K).
With `NCCCCCC(=O)O` [6-aminohexanoic acid] + O, the binary diffusion coefficient (298.2 K) was 7.28e-10 m2/s; the binary diffusion coefficient (303.2 K) was found to be 8.25e-10 m2/s; the binary diffusion coefficient (313.2 K) was 1.05e-09 m2/s; the binary diffusion coefficient (323.2 K) turned out to be 1.29e-09 m2/s; the binary diffusion coefficient (333.2 K) was determined as 1.57e-09 m2/s.
For `NCCCCCCC(=O)O` [7-aminoheptanoic acid] + O the same measures were 6.88e-10 m2/s, 7.86e-10 m2/s, 1e-09 m2/s, 1.23e-09 m2/s and 1.48e-09 m2/s.
